Experimental data reported in patent publication US12521393B2, “Cytotoxicity targeting chimeras for CCR2-expressing cells” (GLAXOSMITHKLINE INTELLECTUAL PROPERTY DEVELOPMENT LIMITED, priority 2021, dated 2026).

How the values were obtained:
[1] = molecular target: human alpha1 nicotinic acetylcholine (nACh) receptor (Homo sapiens, UniProt P02708); experiment: Nicotinic acetylcholine receptor antagonism assay, IONFlux automated patch clamp (Example 203); type: cell-based; conditions: for IC50: antagonism of ACh-stimulated human alpha1 nAChR current, patch clamp; for Emax at 100 µM: maximum percentage antagonism at maximum concentration tested 100 μM
human alpha1 nicotinic acetylcholine (nACh) receptor, sequence (P02708 21-457): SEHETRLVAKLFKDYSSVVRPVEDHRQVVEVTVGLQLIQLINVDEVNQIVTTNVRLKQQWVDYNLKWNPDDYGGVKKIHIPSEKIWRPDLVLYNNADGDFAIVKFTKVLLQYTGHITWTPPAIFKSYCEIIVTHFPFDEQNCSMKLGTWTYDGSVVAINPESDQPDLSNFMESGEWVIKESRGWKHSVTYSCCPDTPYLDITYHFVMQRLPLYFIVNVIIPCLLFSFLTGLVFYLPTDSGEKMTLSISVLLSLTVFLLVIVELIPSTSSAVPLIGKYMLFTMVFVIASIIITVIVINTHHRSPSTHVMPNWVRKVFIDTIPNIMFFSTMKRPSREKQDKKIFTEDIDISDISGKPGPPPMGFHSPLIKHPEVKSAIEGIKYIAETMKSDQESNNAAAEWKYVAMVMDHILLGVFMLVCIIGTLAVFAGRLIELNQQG
human alpha1 nicotinic acetylcholine (nACh) receptor, sequence (P11230 24-501 partner): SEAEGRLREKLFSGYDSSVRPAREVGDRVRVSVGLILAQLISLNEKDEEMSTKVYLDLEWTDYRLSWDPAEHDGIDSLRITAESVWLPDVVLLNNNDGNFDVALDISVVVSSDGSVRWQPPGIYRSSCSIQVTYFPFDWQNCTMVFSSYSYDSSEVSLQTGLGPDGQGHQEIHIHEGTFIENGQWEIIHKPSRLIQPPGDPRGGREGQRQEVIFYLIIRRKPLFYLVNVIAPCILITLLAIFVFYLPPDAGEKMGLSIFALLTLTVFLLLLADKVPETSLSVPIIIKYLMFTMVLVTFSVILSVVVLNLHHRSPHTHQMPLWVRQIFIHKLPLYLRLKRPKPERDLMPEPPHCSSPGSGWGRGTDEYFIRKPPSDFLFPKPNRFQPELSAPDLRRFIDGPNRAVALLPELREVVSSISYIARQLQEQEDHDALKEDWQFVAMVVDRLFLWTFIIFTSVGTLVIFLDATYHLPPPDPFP
human alpha1 nicotinic acetylcholine (nACh) receptor, sequence (Q07001 22-517 partner): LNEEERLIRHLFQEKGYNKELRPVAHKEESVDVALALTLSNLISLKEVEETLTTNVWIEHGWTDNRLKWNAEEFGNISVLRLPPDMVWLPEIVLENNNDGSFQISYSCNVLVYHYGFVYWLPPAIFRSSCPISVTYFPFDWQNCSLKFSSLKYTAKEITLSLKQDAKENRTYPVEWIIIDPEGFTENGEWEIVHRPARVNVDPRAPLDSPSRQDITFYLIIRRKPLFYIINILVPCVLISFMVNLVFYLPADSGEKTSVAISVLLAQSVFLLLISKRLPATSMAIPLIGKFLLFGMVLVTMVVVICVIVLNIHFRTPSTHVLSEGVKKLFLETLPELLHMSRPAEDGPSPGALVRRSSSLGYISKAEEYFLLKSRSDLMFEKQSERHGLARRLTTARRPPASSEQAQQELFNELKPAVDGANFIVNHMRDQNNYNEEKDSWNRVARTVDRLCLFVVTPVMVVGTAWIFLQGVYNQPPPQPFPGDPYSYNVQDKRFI
Outline: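 Cells expressing human α1 nAChR were incubated with a compound dose response (top 10 μM or 100 μM), then stimulated with ACh (10 mM), and peak current was read by automated patch clamp. % inhibition was taken against ACh-alone control, corrected for vehicle and run-down, and fit non-linearly for IC50; runs were averaged.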

[2] = molecular target: anti-cotinine antibody (SEQ ID NO: 11/12, rabbit variable region with human IgG1 Fc DE mutation); experiment: SPR binding of anti-cotinine antibody to ARM compounds, Biacore T200, 37° C. (Example 202); conditions: SPR Biacore T200, 37° C., pH 7.4, antibody SEQ ID NO: 11/12 captured on protein A; Kd in molar
Outline: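 Run at 37 °C in 10 mM HEPES pH 7.4, 150 mM NaCl, 0.005% P20, 1% DMSO, with compounds titrated from 200 nM (five 3-fold steps) over protein A–captured antibody. A 1:1 kinetic model on double-referenced data gave rate constants, Kd as koff/kon and residence time 1/koff; results as pKd, run-averaged.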

Structure (SMILES)	IC50 [1] [µM]	Emax at 100 µM ([1]; read-out: Maximum Response) [%]	pKd of Antibody for ARM Compound of Formula (I) [2]	Emax at 33.33 µM ([1]; maximum percentage antagonism at maximum concentration tested 33.33 μM, read-out: Maximum Response) [%]	Emax at 10 µM ([1]; maximum percentage antagonism at maximum concentration tested 10 μM, read-out: Maximum Response) [%]
CC(C)N(C)[C@@H]1CC[C@H](N2CC[C@H](Nc3ncnc4ccc(C(F)(F)F)cc34)C2=O)[C@H](NC(=O)[C@H]2CC[C@H](NC(=O)CCCO[C@H]3CC[C@H](OCCNC(=O)[C@H]4CC(=O)N(C)[C@@H]4c4cccnc4)CC3)CC2)C1 [Example 1, (2S,3S)-N-(2-(((1R,4S)-4-(4-(((1R,4R)-4-(((1R,2S,5R)-5-(Isopropyl(methyl)amino)-2-((S)-2-oxo-3-((6-(trifluoromethyl)quinazolin-4-yl)amino)pyrrolidin-1-yl)cyclohexyl)carbamoyl)cyclohexyl)amino)-4-oxobutoxy)cyclohexyl)oxy)ethyl)-1-methyl-5-oxo-2-(pyridin-3-yl)pyrrolidine-3-carboxamide]	84.6	25.6	9.654	–	–
CC(C)N(C)[C@@H]1CC[C@H](N2CC[C@H](Nc3ncnc4ccc(C(F)(F)F)cc34)C2=O)[C@H](NC(=O)[C@H]2CC[C@@H](NC(=O)CCCO[C@H]3CC[C@H](OCCNC(=O)[C@H]4CC(=O)N(C)[C@@H]4c4cccnc4)CC3)CC2)C1 [Example 5, (2S,3S)-N-(2-(((1R,4S)-4-(4-(((1S,4S)-4-(((1R,2S,5R)-5-(Isopropyl(methyl)amino)-2-((S)-2-oxo-3-((6-(trifluoromethyl)quinazolin-4-yl)amino)pyrrolidin-1-yl)cyclohexyl)carbamoyl)cyclohexyl)amino)-4-oxobutoxy)cyclohexyl)oxy)ethyl)-1-methyl-5-oxo-2-(pyridin-3-yl)pyrrolidine-3-carboxamide]	≥ 100	40.5	9.19	–	–
CC(C)N(C)[C@@H]1CC[C@H](N2CC[C@H](Nc3ncnc4ccc(C(F)(F)F)cc34)C2=O)[C@H](NC(=O)CCOCCNC(=O)CCCO[C@H]2CC[C@H](OCCNC(=O)[C@H]3CC(=O)N(C)[C@@H]3c3cccnc3)CC2)C1 [Example 7, (2S,3S)-N-(2-(((1r,4S)-4-(4-((2-(3-(((1R,2S,5R)-5-(Isopropyl(methyl)amino)-2-((S)-2-oxo-3-((6-(trifluoromethyl)quinazolin-4-yl)amino)pyrrolidin-1-yl)cyclohexyl)amino)-3-oxopropoxy)ethyl)amino)-4-oxobutoxy)cyclohexyl)oxy)ethyl)-1-methyl-5-oxo-2-(pyridin-3-yl)pyrrolidine-3-carboxamide]	13.7	95	9.2515	–	–
CN1C(=O)C[C@H](C(=O)NCCO[C@H]2CC[C@H](OCCCC(=O)N[C@H]3CC[C@H](C(=O)N[C@@H]4C[C@H](NC(C)(C)C)CC[C@@H]4N4CC[C@H](Nc5ncnc6ccc(C(F)(F)F)cc56)C4=O)CC3)CC2)[C@H]1c1cccnc1 [Example 10, (2S,3S)-N-(2-(((1R,4S)-4-(4-(((1R,4R)-4-(((1R,2S,5R)-5-(tert-Butylamino)-2-((S)-2-oxo-3-((6-(trifluoromethyl)quinazolin-4-yl)amino)pyrrolidin-1-yl)cyclohexyl)carbamoyl)cyclohexyl)amino)-4-oxobutoxy)cyclohexyl)oxy)ethyl)-1-methyl-5-oxo-2-(pyridin-3-yl)pyrrolidine-3-carboxamide]	≥ 33.3	–	9.199	48	–
CC(C)N(C)[C@@H]1CC[C@H](N2CC[C@H](Nc3ncnc4ccc(C(F)(F)F)cc34)C2=O)[C@H](NC(=O)[C@H]2CC[C@@H](NC(=O)CCOCCOCCNC(=O)CCNC(=O)[C@H]3CC(=O)N(C)[C@@H]3c3cccnc3)CC2)C1 [Example 16, (2S,3S)-N-(3-((2-(2-(3-(((1S,4s)-4-(((1R,2S,5R)-5-(Isopropyl(methyl)amino)-2-((S)-2-oxo-3-((6-(trifluoromethyl)quinazolin-4-yl)amino)pyrrolidin-1-yl)cyclohexyl)carbamoyl)cyclohexyl)amino)-3-oxopropoxy)ethoxy)ethyl)amino)-3-oxopropyl)-1-methyl-5-oxo-2-(pyridin-3-yl)pyrrolidine-3-carboxamide]	≥ 100	47.8	9.287	–	–
CC(C)N(C)[C@@H]1CC[C@H](N2CC[C@H](Nc3ncnc4ccc(C(F)(F)F)cc34)C2=O)[C@H](NC(=O)[C@H]2CC[C@@H](NC(=O)CCCC(=O)NCCCOCCCNC(=O)[C@H]3CC(=O)N(C)[C@@H]3c3cccnc3)CC2)C1 [Example 18, N^1-((1S,4s)-4-(((1R,2S,5R)-5-(Isopropyl(methyl)amino)-2-((S)-2-oxo-3-((6-(trifluoromethyl)quinazolin-4-yl)amino)pyrrolidin-1-yl)cyclohexyl)carbamoyl)cyclohexyl)-N^5-(3-(3-((2S,3S)-1-methyl-5-oxo-2-(pyridin-3-yl)pyrrolidine-3-carboxamido)propoxy)propyl)glutaramide]	≥ 100	44.9	9.0895	–	–
CC(C)N(C)[C@@H]1CC[C@H](N2CC[C@H](Nc3ncnc4ccc(C(F)(F)F)cc34)C2=O)[C@H](NC(=O)[C@H]2CC[C@H](NC(=O)CCCC(=O)NCCCOCCCNC(=O)[C@H]3CC(=O)N(C)[C@@H]3c3cccnc3)CC2)C1 [Example 19, N1-((1R,4r)-4-(((1R,2S,5R)-5-(Isopropyl(methyl)amino)-2-((S)-2-oxo-3-((6-(trifluoromethyl)quinazolin-4-yl)amino)pyrrolidin-1-yl)cyclohexyl)carbamoyl)cyclohexyl)-N5-(3-(3-((2S,3S)-1-methyl-5-oxo-2-(pyridin-3-yl)pyrrolidine-3-carboxamido)propoxy)propyl)glutaramide]	≥ 100	34.2	9.19	–	–
CN1C(=O)C[C@H](C(=O)NCCOCCOCCOCCC(=O)N[C@H]2CC[C@@H](C(=O)N[C@@H]3C[C@H](NC(C)(C)C)CC[C@@H]3N3CC[C@H](Nc4ncnc5ccc(C(F)(F)F)cc45)C3=O)CC2)[C@H]1c1cccnc1 [Example 23, (2S,3S)-N-(2-(2-(2-(3-(((1S,4s)-4-(((1R,2S,5R)-5-(tert-Butylamino)-2-((S)-2-oxo-3-((6-(trifluoromethyl)quinazolin-4-yl)amino)pyrrolidin-1-yl)cyclohexyl)carbamoyl)cyclohexyl)amino)-3-oxopropoxy)ethoxy)ethoxy)ethyl)-1-methyl-5-oxo-2-(pyridin-3-yl)pyrrolidine-3-carboxamide]	85.2	50.5	9.2166	–	–
CC(C)N(C)[C@@H]1CC[C@H](N2CC[C@H](Nc3ncnc4ccc(C(F)(F)F)cc34)C2=O)[C@H](NC(=O)[C@H]2C[C@@H](NC(=O)CCOCCOCCOCCNC(=O)[C@H]3CC(=O)N(C)[C@@H]3c3cccnc3)C2)C1 [Example 24, (2S,3S)-N-(2-(2-(2-(3-(((1S,3s)-3-(((1R,2S,5R)-5-(Isopropyl(methyl)amino)-2-((S)-2-oxo-3-((6-(trifluoromethyl)quinazolin-4-yl)amino)pyrrolidin-1-yl)cyclohexyl)carbamoyl)cyclobutyl)amino)-3-oxopropoxy)ethoxy)ethoxy)ethyl)-1-methyl-5-oxo-2-(pyridin-3-yl)pyrrolidine-3-carboxamide]	85.3	59.5	9.4425	–	–
CC(C)N(C)[C@@H]1CC[C@H](N2CC[C@H](Nc3ncnc4ccc(C(F)(F)F)cc34)C2=O)[C@H](NC(=O)[C@H]2CC[C@@H](NC(=O)CCOCCOCCOCCNC(=O)[C@H]3CC(=O)N(C)[C@@H]3c3cccnc3)CC2)C1 [Example 28, (2S,3S)-N-(2-(2-(2-(3-(((1S,4s)-4-(((1R,2S,5R)-5-(Isopropyl(methyl)amino)-2-((S)-2-oxo-3-((6-(trifluoromethyl)quinazolin-4-yl)amino)pyrrolidin-1-yl)cyclohexyl)carbamoyl)cyclohexyl)amino)-3-oxopropoxy)ethoxy)ethoxy)ethyl)-1-methyl-5-oxo-2-(pyridin-3-yl)pyrrolidine-3-carboxamide]	40.9	69.9	9.273	–	–
CC(C)N(C)[C@@H]1CC[C@H](N2CC[C@H](Nc3ncnc4ccc(C(F)(F)F)cc34)C2=O)[C@H](NC(=O)[C@H]2CC[C@H](NC(=O)CCOCCOCCOCCNC(=O)[C@H]3CC(=O)N(C)[C@@H]3c3cccnc3)CC2)C1 [Example 30, (2S,3S)-N-(2-(2-(2-(3-(((1R,4r)-4-(((1R,2S,5R)-5-(Isopropyl(methyl)amino)-2-((S)-2-oxo-3-((6-(trifluoromethyl)quinazolin-4-yl)amino)pyrrolidin-1-yl)cyclohexyl)carbamoyl)cyclohexyl)amino)-3-oxopropoxy)ethoxy)ethoxy)ethyl)-1-methyl-5-oxo-2-(pyridin-3-yl)pyrrolidine-3-carboxamide]	≥ 10	–	9.3155	–	5.4
CCN1C(=O)C[C@H](C(=O)NCCOCCOCCOCCC(=O)N[C@H]2CC[C@@H](C(=O)N[C@@H]3C[C@H](N(C)C(C)C)CC[C@@H]3N3CC[C@H](Nc4ncnc5ccc(C(F)(F)F)cc45)C3=O)CC2)[C@H]1c1cccnc1 [Example 34, (2S,3S)-1-ethyl-N-(2-(2-(2-(3-((cis-4-(((1R,2S,5R)-5-(isopropyl(methyl)amino)-2-((S)-2-oxo-3-((6-(trifluoromethyl)quinazolin-4-yl)amino)pyrrolidin-1-yl)cyclohexyl)carbamoyl)cyclohexyl)amino)-3-oxopropoxy)ethoxy)ethoxy)ethyl)-5-oxo-2-(pyridin-3-yl)pyrrolidine-3-carboxamide]	28.5	79.2	9.933	–	–
